Experimental data reported in article PMC4109680, “Identification and Preclinical Pharmacology of the γ-Secretase Modulator BMS-869780” (International Journal of Alzheimer's Disease, 2014).

Experiment: Pharmacokinetics in male cynomolgus monkeys
Assay type: in vivo
Conditions: cynomolgus monkey, plasma
Procedure: Male Sprague-Dawley (SD) rats (300–350 g) were fasted overnight, and three per group received BMS-869780 either as an intravenous (IV) infusion in PEG400 : ethanol (90 : 10 w/w) at 1 mg/kg over 5 min via the jugular vein or as nanosuspension (d50 ca. 300 nm) by oral gavage at 5 mg/kg in Povidone K-30 : sodium lauryl sulfate : water (2.5 : 0.12 : 97.38 w/w/w/w). For the IV infusion, serial blood samples were obtained before dose and at 0.17, 0.25, 0.5, 0.75, 1, 2, 4, 6, 8, and 24 hours after dose. For the PO nanosuspension, serial blood samples were obtained before dose and at 0.25, 0.5, 0.75, 1, 2, 4, 6, 8, and 24 h after dose. Blood samples, ~0.3 mL, for all studies were collected from the jugular vein into K3EDTA-containing tubes and then centrifuged at 4°C (1500–2000 ×g) to obtain plasma, which was stored at −20°C until analysis by LC/MS/MS. In male beagle dogs, the PK of BMS-869780 was evaluated in a cross-over study design with a one-week washout between treatments. Dogs were fasted overnight, and three animals (9.5 to 10.7 kg) received BMS-869780 by IV infusion at 1 mg/kg over 5 minutes in PEG400 : ethanol (90 : 10 w/w) or as nanosuspension (d50 ca. 300 nm) by oral gavage at 5 mg/kg in Povidone K-30 : sodium lauryl sulfate : water (2.5 : 0.12 : 97.38 w/w/w/w). Serial blood samples (~0.3 mL) were collected from a saphenous vein into K3EDTA-containing tubes before dose and at 0.083, 0.17, 0.25, 0.5, 0.75, 1, 2, 4, 6, 8, and 24 hours after IV dose, and 0.25, 0.5, 0.75, 1, 2, 4, 6, 8, and 24 hours after oral dose, followed by centrifugation at 4°C (1500 to 2000 ×g) to obtain plasma. Samples were stored at −20°C until analysis of BMS-869780 levels by LC-MS/MS. In male cynomolgus monkeys, the PK of BMS-869780 was evaluated in a cross-over study design with a 1-week washout between treatments. Following an overnight fast, three animals (4.5 to 8 kg) received BMS-869780 by IV infusion via a femoral vein at 1 mg/kg over 10 minutes in PEG400 : ethanol (90 : 10), or by oral gavage at 5 mg/kg in Povidone K-30 : sodium lauryl sulfate : water (2.5 : 0.12 : 97.38). Serial blood samples, ~0.3 mL, were collected from a femoral artery into K3EDTA-containing tubes before dose and at 0.083, 0.17, 0.25, 0.5, 0.75, 1, 2, 4, 6, 8, and 24 hours after IV dose, and 0.25, 0.5, 0.75, 1, 2, 4, 6, 8, and 24 hours after oral dose, followed by centrifugation at 4°C (1500 to 2000 ×g) to obtain plasma. Samples were stored at −20°C until analysis of BMS-869780 levels by LC-MS/MS. The PK parameters of BMS-869780 were obtained by noncompartmental analysis of plasma concentration versus time data (WinNonlin software, Version 5.0; Pharsight Corporation, Mountain View, CA). The peak concentration (C max) and time for C max (T max) were recorded directly from experimental observations. The area under the curve from time zero to the last sampling time (AUC^0-T) and the area under the curve from time zero to infinity (AUC^INF) were calculated using a combination of linear and log trapezoidal summations. The total plasma clearance (CLTp), steady-state volume of distribution (Vss), apparent elimination half-life (T 1/2), and mean residence time (MRT) were estimated after IV administration. The absolute oral bioavailability (F) was estimated as the ratio of dose-normalized AUC values following oral and IV doses.
Figure 9 Pharmacokinetics (PK) of BMS-869780 across species for prediction of human PK. Rats, dogs, and cynomolgus monkeys were dosed with BMS-869780 intravenously (IV ▲) at 1 mg/kg or oral nanosuspension (PO ●) at 5 mg/kg. Plasma concentrations of BMS-869780 were determined for up to 24 hours after the dose. (a) Rat. (b) Dog. (c) Cynomolgus monkey.

COc1cc(Nc2nc3n(n2)CCCC[C@H]3c2ccc(F)cc2)ccc1-n1cnc(Cl)c1 [BMS-869780]
AUC(0-t) (IV 1 mg/kg): 2.63 ± 0.926 µM·h
MRT (IV 1 mg/kg): 3.8 ± 0.7 h
clearance (IV 1 mg/kg): 15.2 ± 5.9 mL/min/kg
half-life (IV 1 mg/kg): 4 ± 0.5 h
Vd (IV 1 mg/kg, read-out: Vss): 3.7 ± 1.3 L/kg
AUC(0-t) (PO suspension 5 mg/kg): 2.03 ± 1.04 µM·h
Cmax (PO suspension 5 mg/kg): 219 ± 94 nM
Tmax (PO suspension 5 mg/kg): 2 h
bioavailability (PO suspension 5 mg/kg): 16%
